These results are taken from patent publication EP4559912A1, “SULFUR-CONTAINING HETEROAROMATIC RING COMPOUND, PHARMACEUTICAL COMPOSITION THEREOF, AND USE THEREOF” (Evopoint Biosciences Co., Ltd., priority 2022, dated 2024).

His-GST tagged PARG, sequence (Q86W56 whole entry): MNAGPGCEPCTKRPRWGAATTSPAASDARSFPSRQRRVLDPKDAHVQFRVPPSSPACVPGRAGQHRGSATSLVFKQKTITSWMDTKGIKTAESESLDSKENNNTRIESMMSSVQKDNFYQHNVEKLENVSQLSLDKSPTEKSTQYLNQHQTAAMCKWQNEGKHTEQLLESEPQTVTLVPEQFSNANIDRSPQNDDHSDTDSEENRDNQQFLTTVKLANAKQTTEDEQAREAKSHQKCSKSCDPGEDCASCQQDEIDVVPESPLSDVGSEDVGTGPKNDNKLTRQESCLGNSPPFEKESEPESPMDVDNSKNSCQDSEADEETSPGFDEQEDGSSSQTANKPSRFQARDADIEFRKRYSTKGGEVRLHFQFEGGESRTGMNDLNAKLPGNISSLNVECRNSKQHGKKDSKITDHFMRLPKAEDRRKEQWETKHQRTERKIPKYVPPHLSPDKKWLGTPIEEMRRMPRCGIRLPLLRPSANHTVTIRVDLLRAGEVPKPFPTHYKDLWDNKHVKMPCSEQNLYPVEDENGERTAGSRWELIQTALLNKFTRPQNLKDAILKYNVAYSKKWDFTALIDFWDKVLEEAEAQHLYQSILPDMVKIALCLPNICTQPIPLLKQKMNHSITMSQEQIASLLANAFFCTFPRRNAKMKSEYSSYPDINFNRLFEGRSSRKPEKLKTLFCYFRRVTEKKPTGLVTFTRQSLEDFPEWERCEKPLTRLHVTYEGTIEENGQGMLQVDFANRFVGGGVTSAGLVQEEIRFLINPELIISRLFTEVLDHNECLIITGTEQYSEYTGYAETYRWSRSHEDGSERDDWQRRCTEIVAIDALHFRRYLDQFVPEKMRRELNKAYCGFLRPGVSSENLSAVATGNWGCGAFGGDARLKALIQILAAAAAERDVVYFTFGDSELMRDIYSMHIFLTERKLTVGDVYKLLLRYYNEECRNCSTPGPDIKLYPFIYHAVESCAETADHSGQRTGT

The target of this assay is His-GST tagged PARG (Homo sapiens, UniProt Q86W56). The assay is described as follows: In vitro PARG assay (TR-FRET). It is filed as biochemical. The following applies: 4 pM His-GST tagged PARG, 30 nM Bio PARylated PARP1 substrate, 20 min at room temperature, TR-FRET Em 665/Em 615. The procedure:
The in vitro PARG assay experiment was conducted in a standard 384-well plate with a total volume of 15 µL. To a 384-well plate containing the test compound was added 5 µL of an enzyme reaction mixture (50 mM Tris-HCL pH 7.5, 50 mM KCL, 0.01% Triton X-100, 0.01% BSA, and 4 pM His-GST tagged PARG). The plate was incubated at room temperature for 10 min, and then 5 µL of a substrate mixture (50 mM Tris-HCL pH 7.5, 50 mM KCL, 0.01% Triton X-100, 0.01% BSA, and 30 nM Bio PARylated PARP1) was added to initiate the reaction. The plate was further incubated at room temperature for 20 min, and then 5 µL of a detection reagent was added to terminate the reaction. The detection reagent was prepared from a buffer (50 mM Tris-HCl pH 7.5, 50 mM KCL, 0.01% Triton X-100, and 0.01% BSA), 3 µM compound PDD00017273, 1.5× Mab anti-6HIS XL665 (Cisbio: 61HISXLA), and 1.5× streptavidin terbium cryptate (Cisbio: 610SATLA). The final concentrations of the compound PDD00017273, the 1.5× Mab anti-6HIS XL665 (Cisbio: 61HISXLA), and the 1.5× streptavidin terbium cryptate were 1 µM, 0.5×, and 0.5×, respectively. After incubation in the dark at room temperature for 120 min, TR-FRET signals were measured at Ex 340, Em 665, and Em 615. The ratio for each well was calculated as Em 665/Em 615 (the ratio here corresponds to the ratio of fluorescence signals at the wavelengths).
Take `C[C@@H]1CN(c2cc(S(=O)(=O)NC3(C#N)CC3)cc3c2cnn3-c2nnc(C(F)F)s2)CCN1C(=O)C(O)C1CC1` (single isomer, unassigned) [EVO29534]: the concentration for half-maximal inhibition (IC50) is less than 100 nM.
Under `C[C@@H]1CN(c2cc(S(=O)(=O)NC3(C#N)CC3)cc3c2cnn3-c2nnc(C(F)F)s2)CCN1C(=O)C(O)C1CC1` (single isomer, unassigned) [EVO29537] stands less than 100 nM; under `CCOC(C(=O)N1CCN(c2cc(S(=O)(=O)NC3(C#N)CC3)cc3c2cnn3-c2nnc(C(F)F)s2)C[C@H]1C)C1CC1` (single isomer, unassigned) [EVO29710P1], less than 100 nM; under `CCOC(C(=O)N1CCN(c2cc(S(=O)(=O)NC3(C#N)CC3)cc3c2cnn3-c2nnc(C(F)F)s2)C[C@H]1C)C1CC1` (single isomer, unassigned) [EVO29710P2], less than 100 nM.
In turn, `COC(C(=O)N1CCN(c2cc(S(=O)(=O)NC3(C#N)CC3)cc3c2cnn3-c2nnc(C(F)F)s2)C[C@H]1C)C1CC1` (single isomer, unassigned) [EVO29715P1] yielded an IC50 of less than 100 nM.
Compound `COC(C(=O)N1CCN(c2cc(S(=O)(=O)NC3(C#N)CC3)cc3c2cnn3-c2nnc(C(F)F)s2)C[C@H]1C)C1CC1` (single isomer, unassigned) [EVO29715P2] registered an IC50 of less than 100 nM.
In turn, `C[C@@H]1CN(c2cc(S(=O)(=O)NC3(C#N)CC3)cc3c2cnn3-c2nnc(C(F)F)s2)CCN1C(=O)C(O)C(C)(C)CF` (single isomer, unassigned) [EVO29751P1] displayed an IC50 of less than 100 nM.
In turn, `C[C@@H]1CN(c2cc(S(=O)(=O)NC3(C#N)CC3)cc3c2cnn3-c2nnc(C(F)F)s2)CCN1C(=O)C(O)C(C)(C)CF` (single isomer, unassigned) [EVO29751P2] yielded a half-inhibitory concentration (IC50) of less than 100 nM.
Under `C[C@@H]1CN(c2cc(S(=O)(=O)NC3(C#N)CC3)cc3c2cnn3-c2nnc(C(F)F)s2)CCN1C(=O)C(O)C(C)(C)C(F)F` (single isomer, unassigned) [EVO29752P1] stands less than 100 nM; under `C[C@@H]1CN(c2cc(S(=O)(=O)NC3(C#N)CC3)cc3c2cnn3-c2nnc(C(F)F)s2)CCN1C(=O)C(O)C(C)(C)C(F)F` (single isomer, unassigned) [EVO29752P2], less than 100 nM; under `C[C@@H]1CN(c2cc(S(=O)(=O)NC3(C#N)CC3)cc3c2cnn3-c2nnc(C(F)F)s2)CCN1C(=O)C(O)C(C)(C)CO` (single isomer, unassigned) [EVO29790P1], less than 100 nM.
Turning to `C[C@@H]1CN(c2cc(S(=O)(=O)NC3(C#N)CC3)cc3c2cnn3-c2nnc(C(F)F)s2)CCN1C(=O)C(O)C(C)(C)CO` (single isomer, unassigned) [EVO29790P2], the IC50 was less than 100 nM.
Turning to `N#CC1(NS(=O)(=O)c2cc(N3CCN(C(=O)CO)CC3)c3cnn(-c4nnc(C(F)F)s4)c3c2)CC1` [EVO29103], the IC50 is less than 100 nM.
On to `C[C@@H](O)C(=O)N1CCN(c2cc(S(=O)(=O)NC3(C#N)CC3)cc3c2cnn3-c2nnc(C(F)F)s2)CC1` [EVO29284], for which the concentration for half-maximal inhibition (IC50) is less than 100 nM.
`C[C@@H]1CN(c2cc(S(=O)(=O)NC3(C#N)CC3)cc3c2cnn3-c2nnc(C(F)F)s2)CCN1C(=O)[C@@H](C)O` [EVO29285] gave an IC50 of less than 100 nM.
`CC(C)C(=O)C(=O)N1CCN(c2cc(S(=O)(=O)NC3(C#N)CC3)cc3c2cnn3-c2nnc(C(F)F)s2)C[C@H]1C` [EVO29291] gave an IC50 of less than 100 nM.
Turning to `C[C@@H]1CN(c2cc(S(=O)(=O)NC3(C#N)CC3)cc3c2cnn3-c2nnc(C(F)F)s2)CCN1C(=O)C(N)=O` [EVO29298], the IC50 is less than 100 nM.
As for `Cc1nnc(-n2ncc3c(N4CCN(C(=O)[C@@H](N)CO)[C@H](C)C4)cc(S(=O)(=O)NC4(C)CC4)cc32)s1` [EVO29314], the figure is 100 to 500 nM; as for `C[C@H](O)C(=O)N1CCN(c2cc(S(=O)(=O)NC3(C#N)CC3)cc3c2cnn3-c2nnc(C(F)F)s2)C[C@H]1C` [EVO29334], less than 100 nM; as for `CC(C)[C@@H](O)C(=O)N1CCN(c2cc(S(=O)(=O)NC3(C#N)CC3)cc3c2cnn3-c2nnc(C(F)F)s2)C[C@H]1C` [EVO29335], less than 100 nM.
Under `Cc1nnc(-n2ncc3c(N4CCN(C(=O)[C@@H](C)O)[C@H](C)C4)cc(S(=O)(=O)NC4(C#N)CC4)cc32)s1` [EVO29336] stands less than 100 nM.
`C[C@@H]1CN(c2cc(S(=O)(=O)NC3(C)CC3)cc3c2cnn3-c2nnc(C(F)F)s2)CCN1C(=O)[C@@H](C)O` [EVO29337] registered an IC50 of less than 100 nM.
The compound `Cc1nnc(-n2ncc3c(N4CCN(C(=O)[C@@H](C)O)[C@H](C)C4)cc(S(=O)(=O)NC4(C)CC4)cc32)s1` [EVO29338] registered an IC50 of less than 100 nM.
As for `C[C@@H]1CN(c2cc(S(=O)(=O)NC3(C#N)CC3)cc3c2cnn3-c2nnc(C(F)F)s2)CCN1C(=O)C(C)(C)O` [EVO29339], the figure is less than 100 nM.
In turn, `C[C@H](CO)C(=O)N1CCN(c2cc(S(=O)(=O)NC3(C#N)CC3)cc3c2cnn3-c2nnc(C(F)F)s2)C[C@H]1C` [EVO29351] showed an IC50 of less than 100 nM.
Under `CC(C)C(=O)C(=O)N1CCN(c2cc(S(=O)(=O)NC3(C)CC3)cc3c2cnn3-c2nnc(C(F)F)s2)C[C@H]1C` [EVO29383] stands less than 100 nM; under `Cc1nnc(-n2ncc3c(N4CCN(C(=O)C(=O)C(C)C)[C@H](C)C4)cc(S(=O)(=O)NC4(C)CC4)cc32)s1` [EVO29384], less than 100 nM.
Under `Cc1nnc(-n2ncc3c(N4CCN(C(=O)C(=O)C(C)C)[C@H](C)C4)cc(S(=O)(=O)NC4(C#N)CC4)cc32)s1` [EVO29385] stands less than 100 nM; under `C[C@@H]1CN(c2cc(S(=O)(=O)NC3(C#N)CC3)cc3c2cnn3-c2nnc(C(F)F)s2)CCN1C(=O)C(=O)C1CC1` [EVO29386], 100 to 500 nM; under `C[C@@H]1CN(c2cc(S(=O)(=O)NC3(C)CC3)cc3c2cnn3-c2nnc(C(F)F)s2)CCN1C(=O)C(=O)C1CC1` [EVO29387], less than 100 nM.
`CC(=O)C(=O)N1CCN(c2cc(S(=O)(=O)NC3(C)CC3)cc3c2cnn3-c2nnc(C(F)F)s2)C[C@H]1C` [EVO29388] returned an IC50 of less than 100 nM.
Under `C[C@@H]1CN(c2cc(S(=O)(=O)NC3(C#N)CC3)cc3c2cnn3-c2nnc(C(F)F)s2)CCN1C(=O)C(=O)C(C)(C)C` [EVO29405] stands less than 100 nM.
In the case of `C[C@@H]1CN(c2cc(S(=O)(=O)NC3(C)CC3)cc3c2cnn3-c2nnc(C(F)F)s2)CCN1C(=O)C(=O)C(C)(C)C` [EVO29406], the IC50 is less than 100 nM.
As for `Cc1nnc(-n2ncc3c(N4CCN(C(=O)C(=O)C(C)(C)C)[C@H](C)C4)cc(S(=O)(=O)NC4(C#N)CC4)cc32)s1` [EVO29407], the IC50 is less than 100 nM.
Under `Cc1nnc(-n2ncc3c(N4CCN(C(=O)C(=O)C(C)(C)C)[C@H](C)C4)cc(S(=O)(=O)NC4(C)CC4)cc32)s1` [EVO29408] stands less than 100 nM; under `CO[C@H](C)C(=O)N1CCN(c2cc(S(=O)(=O)NC3(C#N)CC3)cc3c2cnn3-c2nnc(C(F)F)s2)C[C@H]1C` [EVO29409], less than 100 nM.
As to `CO[C@H](C)C(=O)N1CCN(c2cc(S(=O)(=O)NC3(C)CC3)cc3c2cnn3-c2nnc(C(F)F)s2)C[C@H]1C` [EVO29410], the IC50 was less than 100 nM.
`CO[C@H](C)C(=O)N1CCN(c2cc(S(=O)(=O)NC3(C#N)CC3)cc3c2cnn3-c2nnc(C)s2)C[C@H]1C` [EVO29411] came in with an IC50 of less than 100 nM.
As for `CO[C@H](C)C(=O)N1CCN(c2cc(S(=O)(=O)NC3(C)CC3)cc3c2cnn3-c2nnc(C)s2)C[C@H]1C` [EVO29412], the figure is less than 100 nM.
Compound `CC(C)C(=O)C(=O)N1CCN(c2cc(S(=O)(=O)NC3(C#N)CC3)cc3c2cnn3-c2nnc(C(F)F)s2)CC1` [EVO29417] had an IC50 of less than 100 nM.
`CO[C@@H](C(=O)N1CCN(c2cc(S(=O)(=O)NC3(C#N)CC3)cc3c2cnn3-c2nnc(C(F)F)s2)C[C@H]1C)C(C)C` [EVO29418] returned an IC50 of less than 100 nM.
For `CO[C@@H](C(=O)N1CCN(c2cc(S(=O)(=O)NC3(C)CC3)cc3c2cnn3-c2nnc(C(F)F)s2)C[C@H]1C)C(C)C` [EVO29419], the IC50 was less than 100 nM.
Under `CO[C@@H](C(=O)N1CCN(c2cc(S(=O)(=O)NC3(C#N)CC3)cc3c2cnn3-c2nnc(C)s2)C[C@H]1C)C(C)C` [EVO29420] stands less than 100 nM; under `CO[C@@H](C(=O)N1CCN(c2cc(S(=O)(=O)NC3(C)CC3)cc3c2cnn3-c2nnc(C)s2)C[C@H]1C)C(C)C` [EVO29421], less than 100 nM; under `COC(C)(C)C(=O)N1CCN(c2cc(S(=O)(=O)NC3(C#N)CC3)cc3c2cnn3-c2nnc(C(F)F)s2)C[C@H]1C` [EVO29426], less than 100 nM.
In turn, `C[C@@H]1CN(c2cc(S(=O)(=O)NC3(C#N)CC3)cc3c2cnn3-c2nnc(C(F)F)s2)CCN1C(=O)[C@H](O)C(C)(C)C` [EVO29451] registered an IC50 of less than 100 nM.
In turn, `C[C@@H]1CN(c2cc(S(=O)(=O)NC3(C#N)CC3)cc3c2cnn3-c2nnc(C(F)F)s2)CCN1C(=O)[C@](C)(O)C(F)(F)F` [EVO29462] showed an IC50 of less than 100 nM.
Under `C[C@@H]1CN(c2cc(S(=O)(=O)NC3(C#N)CC3)cc3c2cnn3-c2nnc(C(F)F)s2)CCN1C(=O)[C@@](C)(O)C(F)(F)F` [EVO29463] stands less than 100 nM.
